The text below walks through data of patent US11028369B2, “Induced extended pluripotent stem cells, method of making and using” (Beihao Stem Cell and Regenerative Medicine Research …, priority 2015, dated 2021).

Counter-ions that a name gives are not always drawn.

In one assay the test system is hEPS cells. The assay can be described thus: Maintenance of hEPS cells after withdrawal or replacement of DiM or MiH. The assay is classed as cell-based, human. To be noted: for maintenance of hEPS cells when DiM or MiH is replaced: inhibitor of the same target replaces DiM or MiH in LCDM; for maintenance of hEPS cells when DiM is replaced by MAPK signaling inhibitor: replacement of DiM. On the procedure: FIGS. 4A and 4B show the profiles of H3K4me3 and H3K27me3 chromatin marks over all genes in primed hES (n=2, technical replicates) and hEPS (n=2, technical replicates) cells. The standard error of mean (SEM) across the regions is calculated and shown as a semi-transparent shade around the mean curve. FIGS. 4C-D are bar graphs showing Q-PCR analysis of selected gene expression in hEPS cells under different conditions at passage 7. DiM (((S)-(+)-Dimethindene maleate) (FIG. 4C) and MiH (Minocycline hydrochloride) (FIG. 4D) were replaced with small molecules targeting to the same targets in the LCDM [hLIF (human leukemia inhibitory factor), CHIR99021, DiM, and MiH] condition. hEPS cells were cultured under LCM condition with an added small molecule selected from: DiM (2 μM), TH(5 μM), DES(5 μM), or cultured with DMSO (dimethyl sulfoxide) respectively (FIG. 4C) or under LCD condition with an added small molecule selected from MiH, BSI-201 (5 μM), NAM (100 μM), PJ34 (N-(6-Oxo-5,6-dihydro-phenanthridin-2-yl)-N,N-dimethylacetamide. HCl) (5 μM), or DMSO (FIG. 4D). Expression values are normalized to the mean value of the LCM+DiM (FIG. 4C) and LCD+MiH (FIG. 4D) sample. LCM: human LIF+CHIR99021+MiH; LCD: human LIF+CHIR99021+DiM. Center values indicate mean. Error bars indicate s.d. (n=3, technical replicates). TH: Tripelennamine HCL; DES: Desloratadine; BSI: BSI-201; NAM: Nicotinamide. […] Expression values are normalized to the mean value of the scramble control. Center values indicate mean. Error bars indicate s.d. (n=3, technical replicates). FIG. 4F is a bar graph showing a summary of chimera assays at E12.5. […] FIG. 4G is a bar graph showing a summary of chimeric assays of single-cell injection at the 8-cell embryo stage. […] ICM & TE, embryos with the integration of mouse cells into both ICM and TE.
Human and mouse extended pluripotent stem cells were cultured in serum-free N2B27-LCDM medium in 20% O2, 5% CO2 conditions. To maintain human EPS cells in an undifferentiated state, the following criteria were used: a) avoidance of plating human EPS cells too sparsely; b) use of the proper quantity of freshly prepared MEF feeder cells; and c) not allowing human EPS cells to overgrow (for example, attain more than 90% confluence; preferably, the cells should be at less than 90% confluent). Accordingly, human and mouse EPS cells were cultured on mitomycin C-inactivated mouse embryonic fibroblast (MEF) feeder cells (3×10^4 cells per cm^2), and were passaged by single-cell trypsinization (0.05% trypsin-EDTA, Invitrogen) every 2-4 days (normally at a split ratio of 1:6 to 1:10). Passage numbers of EPS cells indicate number of passages counted after the acquirement of the extended pluripotent state. The N2B27-LCDM medium was changed every day with fresh LCDM medium.
Finally, the roles of DiM and MiH in maintaining EPS cells were investigated. […] Furthermore, similar results were obtained when MiH was replaced by the knockdown of PARP1 in hEPS cells (FIG. 4E). Importantly, both mEPS and hEPS cells still retained their ability of contributing to both TE and ICM in blastocysts under such conditions (FIG. 6C, 6D, and data not shown).

The next assay concerns mEPS cells. Nature of the assay: Chimeric analysis of mEPS cells cultured under different conditions (injection into 8-cell embryos). The class given is cell-based, mouse. To be noted: chimeric blastocysts; for developmental potency of mEPS cells when DiM is replaced by MAPK signaling inhibitor: replacement of DiM. As to the method: FIGS. 6A and 6B show PCA of RNA-seq and microarray data from EPS cells and known pluripotent cell types. […] Data were normalized to mES cells in each study. […] Data were normalized to primed hPSCs in each study. […] Circles: RNA-seq data; triangles: microarray data. […] Parp1 knockout mEPS cells (Parp1-KO) were cultured in LCDM condition without MiH (-MiH). mEPS cells were cultured under different conditions for at least 5 passages before injection. Multiple cells were injected into 8-cell embryos, which were cultured for additional 60 hours before further analysis. […] ICM & TE, embryos with the integration of mouse cells into both ICM and TE. […] ICM & TE, embryos with the integration of mouse cells into both ICM and TE. TH: TripelennamineHCL; DES: Desloratadine; NAM: Nicotinamide. PD: PD0325901; SB: SB203580; SP: SP600125.
For injection of Tdtomato-labeled mEPS cells and conventional naïve mouse ES cells, mEPS and naïve mouse ES cells were trypsinized and microinjected in the same way as for hEPS cells except that Y27632 was not added into the suspension.
The cells used in this experiment were cultured and prepared in a way that was similar to that of the multiple-cell microinjections. The cell suspension was placed on ice for 20-30 minutes before injection. After being placed on ice, the digested single cells were used for injection within 1 hour: in other words, the whole injection process should not take more than 30 minutes. Afterward, the injected embryos are recovered for 1-2 hours in a humidified incubator with 5% CO2 at 37° C. If the cells were placed on ice for more than 1 hour, then another batch of cells was digested for the remaining injections. […] After 60 hours, the embryos were fixed and immunostained.

The test system of the next assay is primed hES/hPS H9 cells. Nature of the assay: Screen for dome-shaped hES colony formation / TGFβ signaling-independent self-renewal. The class given is cell-based, human. To be noted: hLIF+2i + candidate with SB431542. From the text:
Primed hES are flat colonies. By contrast, naïve human pluripotent cells are dome-shaped colonies. Therefore, any resultant human EPS cells can be morphologically distinguished from primed human pluripotent stem cells.
Positive candidates from the first screen above were further screened in order to identify small molecules that support TGFβ signaling-independent self-renewal of hES cells (Tesar, et al., Dev., 448:196-199 (2007); James, et al.,Dev., 132:1273-1282 (2005); Vallier, et al., J. Cell. Sci., 118:4495-4509 (2005)). A TGFβ inhibitor SB431542 was added to the chemical cocktail (2i+LIF+candidate) at the later stage of treatment (FIG. 1A).
Specifically, primed hES/hPS H9 cells were digested into single cells using ACCUTASE® (cell detachment solution), and seeded into a matrigel-coated 24-well plate (1×10^4 cells per well) on day 0 in conventional hES medium plus Y27632. On day 1, the conventional hES medium was replaced by the N2B27 medium supplemented with the hLIF+2i base, and candidates from the first round screen were added individually into each well. The medium was changed every two days and replaced with fresh N2B27 medium supplemented with hLIF+2i. 6 days later (i.e., on day 7), a TGF (transforming growth factor) β inhibitor, SB431542 (10 μm, Tocris), was added into wells with un-differentiated cells for another 6 days. […]

Setting [1] is: withdrawal of either DiM or MiH.

On to `NC(=O)c1ccc(I)c([N+](=O)[O-])c1` [BSI-201, 4-iodo-3-nitrobenzamide], for which the “maintenance of hEPS cells when DiM or MiH is replaced” value with hEPS cells was “could be replaced with other inhibitors targeting the same targets for the maintenance of hEPS cells”.

In the case of `Clc1ccc2c(c1)CCc1cccnc1C2=C1CCNCC1` [Desloratadine], the “maintenance of hEPS cells when DiM or MiH is replaced” value in the assay on hEPS cells is given as “could be replaced with other inhibitors targeting the same targets for the maintenance of hEPS cells”.

On to `C[C@@H](C1=C(CCN(C)C)Cc2ccccc21)c1ccccn1.O=C(O)/C=C\C(=O)O` [DiM, (S)-(+)-Dimethindene maleate], for which, in the assay on hEPS cells (setting [1]), the “effect of withdrawal from LCDM on hEPS cells” value was “rapid differentiation of hEPS cells within days after plating”. Besides, in the assay on mEPS cells (setting [1]), the “effect of withdrawal from LCDM on developmental potency of mEPS cells” value is given as “significantly impaired the developmental potency of mEPS cells”. Further, the “dome-shaped hES colony formation” value in the assay on primed hES/hPS H9 cells was “support dome-shaped hES colony formation”. As for `NC(=O)c1cccnc1` [Nicotinamide], the “maintenance of hEPS cells when DiM or MiH is replaced” value in the assay with hEPS cells is recorded as “could be replaced with other inhibitors targeting the same targets for the maintenance of hEPS cells”.

As to `O=C(NOC[C@H](O)CO)c1ccc(F)c(F)c1Nc1ccc(I)cc1F` [PD0325901], the “maintenance of hEPS cells when DiM is replaced by MAPK signaling inhibitor” value in the assay on hEPS cells is reported as “could not maintain hEPS cells”. In addition, in the assay on mEPS cells, the “developmental potency of mEPS cells when DiM is replaced by MAPK signaling inhibitor” value was “could not preserve the developmental potency of mEPS cells”. For `C[S+]([O-])c1ccc(-c2nc(-c3ccncc3)c(-c3ccc(F)cc3)[nH]2)cc1` (centres unmarked) [SB203580], in that order: “could not maintain hEPS cells” and “could not preserve the developmental potency of mEPS cells”.

Consider `CN(C)CCN(Cc1ccccc1)c1ccccn1` [TripelennamineHCL, Tripelennamine HCL], for which the “maintenance of hEPS cells when DiM or MiH is replaced” value in the assay on hEPS cells is “could be replaced with other inhibitors targeting the same targets for the maintenance of hEPS cells”.
